Columns and labels:
[1] = system: DENV-2; assay: microbe, parasite or virus in culture; conditions: Dengue virus, DENV2, BHK, read-out: DENV-2 EC50
[2] = system: DENV-2
[3] = in vitro; conditions: Mesocricetus auratus (hamster)
[4] = system: Sb-1; assay: microbe, parasite or virus in culture; assay type: cell-based, Poliovirus type-1, Sabin strain; conditions: Enterovirus C, Vero 76, read-out: Sb-1 EC50
[5] = system: VSV; assay: microbe, parasite or virus in culture; assay type: cell-based; conditions: Vesicular stomatitis virus, Vero 76, read-out: VSV EC50
[6] = system: HSV-1; assay: microbe, parasite or virus in culture; assay type: cell-based, human herpesvirus 1; conditions: Human alphaherpesvirus 1, Vero 76, read-out: HSV-1 EC50
[7] = system: YFV
[8] = system: YFV; assay: microbe, parasite or virus in culture; conditions: Yellow fever virus, BHK, read-out: YFV EC50
[9] = in vitro; conditions: human
[10] = system: CVB-5; assay: microbe, parasite or virus in culture; assay type: cell-based, Coxsackievirus B5; conditions: Enterovirus B, Vero 76, read-out: CVB-5 EC50
[11] = system: VV; assay: microbe, parasite or virus in culture; assay type: cell-based; conditions: Orthopoxvirus vaccinia, Vero 76, read-out: VV EC50
[12] = in vitro; conditions: Bos taurus (cattle)
[13] = system: BVDV
[14] = system: BVDV; assay: microbe, parasite or virus in culture; conditions: Bovine viral diarrhea virus isolates and strains, MDBK, read-out: BVDV EC50
[15] = in vitro; conditions: Cercopithecus aethiops (monkey), Vero76 CC50
[16] = system: RSV
[17] = system: RSV; assay: microbe, parasite or virus in culture; conditions: human respiratory syncytial virus, Vero 76, read-out: RSV EC50

Row | SMILES | EC50 [1] [µM] | SI CC50/EC50 (DENV-2) [2] | CC50 [3] [µM] | SI CC50/EC50 (YFV) [7] | EC50 [8] [µM] | CC50 [9] [µM] | melting point [°C] | CC50 [12] [µM] | SI CC50/EC50 (BVDV) [13] | EC50 [14] [µM] | CC50 [15] [µM] | also measured
1 | Cc1ccc(-c2nn(-c3ccccc3)cc2CNc2ccccc2)cc1 [1a] | 30 ± 4 | >3.3 | > 100 |  |  |  |  |  |  |  |  | 
2 | Cc1ccc(NCc2cn(-c3ccccc3)nc2-c2ccccc2)cc1 [1m] | 11.2 ± 3.6 | >8.9 | > 100 |  |  |  |  |  |  |  |  | 
3 | O=S(=O)(c1ccccc1)n1cc(CNc2ccc(Cl)cc2)c(-c2ccccc2)n1 [7b, 4-Chloro-N-[(3-phenyl-1-(phenylsulphonyl)-1H-pyrazol-4-yl)methyl]aniline] |  |  | > 100 | >12.3 | 8.1 ± 1.3 | > 100 | 136 to 137 | > 100 |  |  |  | EC50 [4]: > 80 µM; EC50 [5]: > 80 µM; EC50 [6]: > 80 µM; EC50 [10]: 20 ± 5 µM; EC50 [11]: > 80 µM
4 | O=S(=O)(c1ccccc1)n1cc(CNc2ccc(Cl)cc2)c(-c2ccc(Cl)cc2)n1 [7j, 4-Cloro-N-[(3-(4-chlorophenyl)-1-(phenylsulfonyl)-1H-pyrazol-4-yl)methyl]aniline] |  |  | > 100 | >22.7 | 4.4 ± 0.4 | > 100 | 142 to 143 | > 100 | >2.3 | 43.3 ± 1.1 | > 100 | SI CC50/EC50 (RSV) [16]: >11.8; EC50 [17]: 8.5 ± 0.5 µM
5 | COc1ccc(S(=O)(=O)n2cc(CNc3ccc(Br)cc3)c(-c3ccc(C)cc3)n2)cc1 [8k] |  |  | > 100 |  |  | > 100 | 151 to 153 | > 100 | >5.1 | 19.5 ± 1.4 | > 100 | 
6 | Brc1ccc(-c2nn(-c3ccccc3)cc2CNc2ccccc2)cc1 [1b] | 22 ± 6 | >4.5 | > 100 |  |  |  |  |  |  |  |  | 
7 | Cc1ccc(-c2nn(-c3ccccc3)cc2CNc2ccc(Cl)cc2)cc1 [1k] | 12.1 ± 3 | >8.3 | > 100 |  |  |  |  |  |  |  |  | 
8 | Cc1ccc(NCc2cn(S(=O)(=O)c3ccccc3)nc2-c2ccc(Br)cc2)cc1 [7h, 4-Methyl-N-[(3-(4-bromophenyl)-1-(phenylsulfonyl)-1H-pyrazol-4-yl)methyl]aniline] |  |  | > 100 | >20.4 | 4.9 ± 0.9 | > 100 | 112 | > 100 |  |  | 93 ± 0.5 | EC50 [4]: > 93 µM; EC50 [5]: > 93 µM; EC50 [6]: > 93 µM; SI CC50/EC50 (RSV) [16]: 7.4; EC50 [10]: > 93 µM; EC50 [11]: > 93 µM; EC50 [17]: 12.5 ± 2.5 µM
9 | O=S(=O)(c1ccccc1)n1cc(CNc2ccc(Br)cc2)c(-c2ccc(Br)cc2)n1 [7g, 4-Bromo-N-[(3-(4-bromophenyl)-1-(phenylsulfonyl)-1H-pyrazol-4-yl)methyl]aniline] |  |  | > 100 | >16.1 | 6.2 ± 0.5 | > 100 | 150 to 151 | > 100 |  |  | 90 ± 1 | EC50 [4]: > 90 µM; EC50 [5]: > 90 µM; EC50 [6]: > 90 µM; SI CC50/EC50 (RSV) [16]: 5.7; EC50 [10]: > 90 µM; EC50 [11]: > 90 µM; EC50 [17]: 15.8 ± 2 µM
10 | Clc1ccc(NCc2cn(-c3ccccc3)nc2-c2ccccc2)cc1 [1h] | 13 ± 5 | >7.7 | > 100 |  |  |  |  |  |  |  |  | 
11 | COc1ccc(S(=O)(=O)n2cc(CNc3ccc(Cl)cc3)c(-c3ccc(Br)cc3)n2)cc1 [8b, 4-Chloro-N-[(3-(4-bromophenyl)-1-((4-methoxphenyl)sulfonyl)-1H-pyrazol-4-yl)methyl]aniline] |  |  | > 100 | >4.6 | 21.6 ± 0.8 | > 100 | 153 to 154 | > 100 | >5.0 | 20 ± 1.4 | > 100 | 
12 | COc1ccc(S(=O)(=O)n2cc(CNc3ccc(Cl)cc3)c(-c3ccc(Cl)cc3)n2)cc1 [8f, 4-Chloro-N-[(3-(4-chlorophenyl)-1-((4-methoxyphenyl)sulfonyl)-1H-pyrazol-4-yl)methyl]aniline] |  |  | > 100 | >6.25 | 16 ± 0.7 | > 100 | 158 to 159 | > 100 | >12.7 | 7.9 ± 0.8 | > 100 | 
13 | Cc1cc(CCCOc2c(C)cc(-c3noc(C(F)(F)F)n3)cc2C)on1 [Pleconaril, reference compound] |  |  |  |  |  |  |  |  |  |  | 70 ± 1 | EC50 [4]: 2 ± 0.1 µM; EC50 [10]: 0.0025 ± 0.0005 µM
14 | NC(=O)c1ncn([C@@H]2O[C@H](CO)[C@@H](O)[C@H]2O)n1 [Ribavirin, reference compound] |  |  |  |  |  |  |  | 55 ± 7 | 3.4 | 16 ± 2 | > 100 | SI CC50/EC50 (RSV) [16]: >2.7; EC50 [17]: 37.5 ± 2.5 µM
15 | COc1ccc(S(=O)(=O)n2cc(CNc3ccc(Br)cc3)c(-c3ccc(Cl)cc3)n2)cc1 [8g, 4-Bromo-N-[(3-(4-chlorophenyl)-1-((4-methoxyphenyl)sulfonyl)-1H-pyrazol-4-yl)methyl]aniline] |  |  | > 100 | >5.4 | 18.6 ± 0.8 | > 100 | 169 to 171 | > 100 | >8.1 | 12.4 ± 0.8 | > 100 | 
16 | COc1ccc(S(=O)(=O)n2cc(CNc3ccc(Br)cc3)c(-c3ccc(Br)cc3)n2)cc1 [8c, 4-Bromo-N-[(3-(4-bromophenyl)-1-((4-methoxphenyl)sulfonyl)-1H-pyrazol-4-yl)methyl]aniline] |  |  | > 100 |  | > 100 | > 100 | 162 to 164 | > 100 | >4.4 | 23 ± 3.5 | > 100 | 
17 | COc1ccc(S(=O)(=O)n2cc(CNc3ccccc3)c(-c3ccc(Br)cc3)n2)cc1 [8a] |  |  | > 100 |  |  | > 100 | 131 to 134 | > 100 |  | 5.6 ± 0.8 | > 100 | 
18 | Clc1ccc(-c2nn(-c3ccccc3)cc2CNc2ccc(Br)cc2)cc1 [1d] | 11 ± 0.4 | >9.1 | > 100 |  |  |  |  |  |  |  |  | 
19 | Clc1ccc(NCc2cn(-c3ccccc3)nc2-c2ccc(Br)cc2)cc1 [1l] | 12.9 ± 2.3 | >7.8 | > 100 |  |  |  |  |  |  |  |  | 
20 | COc1c(C)c2c(c(O)c1C/C=C(\C)CCC(=O)O)C(=O)OC2 [M 5255, Mycophenolic acid, reference compound] |  |  |  |  |  |  |  |  |  |  | 20 ± 0.3 | EC50 [11]: 2 ± 0.1 µM
21 | Nc1nc2c(ncn2COCCO)c(=O)[nH]1 [ACG, Acyclovir, reference compound] |  |  |  |  |  |  |  |  |  |  | > 100 | EC50 [6]: 2.9 ± 0.1 µM

From publication PMC6465675, “Design, Synthesis, Antiviral Evaluation, and SAR Studies of New 1-(Phenylsulfonyl)-1H-Pyrazol−4-yl-Methylaniline Derivatives” (Frontiers in Chemistry, 2019)
